# Reference: patent US8877773B2, “Methods for treating chronic obstructive pulmonary disease” (Indiana University Research and Technology Corporation, priority 2009, dated 2014)
# Entries after “also recorded” stand apart in the source; their conditions may differ.
# Test system: rats exposed to hypercarbic gas
# Experiment: Hypercarbic gas (20% CO2) challenge: MAP, HR, locomotor activity, fecal pellets
# Format: in vivo, rat
# Experimental: Prior to surgery, rats were anesthetised with a nose cone connected to an isoflurane system (MGX Research Machine; Vetamic, Rossville Ind., USA) during the surgery. […] Briefly, cardiovascular responses were measured by a femoral arterial line connected to a telemetric probe that contained a pressure transducer [Cat. no. C50-PXT, Data Sciences International (DSI), St. Paul, Minn., USA]. DSI dataquest software was used to monitor and record MAP and HR. For the duration of each experiment, MAP and HR were recorded continuously in freely moving conscious rats. Data were analyzed during the period 5 min prior to, 5 min during, and 5 min following the gas challenges. The data reported are changes in HR and MAP, expressed in 1 min bins, relative to the average of the baseline measurement (t−5 min to t−1 min) from each rat.
# Flow cages (12 in. width×12 in. height×24 in. length) were custom built using Plexiglas®. When the lid of the cage was latched, gases could only enter the cage through an inlet connector (for the gas infusion) and could only exit the cage through an outlet connector. The gas flow into the cages was controlled using a 2-stage regulator (Praxair, Inc., Danbury, Conn., USA) at a pressure of 0.6 Bar.
# On day 1, rats (n=3/group) were selected from their home cages and placed into experimental cages containing atmospheric air. […] Fecal pellets were counted in cages at the end of gas challenges. In order to assess anxiety-like behavioural responses following exposure to hypercarbic gas, rats were immediately transferred to an adjacent room and place in the center square of an open-field box for a 5 min test. On day 2, the experiment was repeated, but the treatments were reversed for each rat. For instance, rats that received atmospheric gas challenge on day 1 received the hypercapnic gas challenge on day 2.
# All rats received hypercarbic gas infusions as described in detail in Experiment 11. […] Blood pressure, heart rate, locomotor activity, number of fecal pellets and anxiety-like behavior were assessed as described in Experiment 11.
# Dependent variables for analyses of cardiovascular responses (HR, MAP) and locomotor activity were analysed using a […], using gas infusion as the between-subjects factor and time as a within-subjects factor. Dependent variables for the number of fecal pellets and open-field anxiety test (i.e., time spent in each section, line crossings) were analysed using a one-way ANOVA with gas infusion in Experiment 11 and drug treatment in Experiment 12 as the between-subjects factors. […] Within-subjects comparisons were also made on the MAP and HR measures using a Dunnett's test for multiple comparisons with a single control using the 5 Min baseline measurement as the control. The alpha level was set at 0.05 in all cases.
# [1] = 20% CO2, 30 mg/kg i.p. 30 min prior
smiles,measurement,setting,value
"Cc1nc2ccc(NC(=O)Nc3ccnc4cccnc34)cc2o1 [SB334867, N-(2-Methyl-6-benzoxazolyl)-N′-1,5-naphthyridin-4-yl urea]",hypercarbic gas-induced changes in MAP (pressor response),"20% CO2/normoxic gas 5 min, 30 mg/kg i.p. 30 min prior",attenuated
same,hypercarbic gas-induced bradycardia,"20% CO2/normoxic gas 5 min, 30 mg/kg i.p. 30 min prior, 30 mg/kg",without altering; also recorded: had no effect
same,hypercarbic gas-induced increase in numbers of fecal pellets,[1],attenuated
same,"locomotor responses over time prior to, during or after hypercarbic gas",[1],Neither the vehicle nor SB334867 treated rats had a change in locomotor responses
same,locomotor activity prior to hypercarbic gas infusion,"baseline, 30 mg/kg i.p., vs vehicle-treated rats",higher
